From patent publication US20210010086A1, “MNK BIOMARKERS AND USES THEREOF” (eFFECTOR Therapeutics, Inc., priority 2015, published 2021)

Experiments:
Cyclin D3 = experiment: Immunoblotting of cyclin D3 protein in TMD8 cells; format: cell-based, human; conditions: increasing concentrations, 48 hours
Experimental: (§1) TMD8 human diffuse large B-cell lymphoma line was cultured in RPMI media supplemented with penicillin G (100 U/ml), streptomycin (100 μg/ml), 10% FBS in a humidified atmosphere of 5% CO2 maintained at 37° C. • (b) Drug Treatment
(§2) TMD8 cells were seeded prior to drug treatment. The following day, cells were treated with either DMSO (vehicle control) or MNK inhibitor (Compound 107) at the appropriate dose and time. • (c) Immunoblotting
(§3) Cells were spun down and washed with PBS and lysed in 1× RIPA buffer (Thermo Fisher) for 15 min at 4° C. Lysates were sonicated briefly and clarified by centrifugation for 15 min at 14,000 rpm and supernatants were collected. Protein concentration in the soluble fraction was determined by BCA protein assay (Thermo Scientific). 20 μg of protein were resolved on 4-20% Bis-Tris gradient gel (Invitrogen) and transferred to nitrocellulose membrane. The resulting blots were blocked for 1 hr at room temperature with Odyssey blocking solution (LI-COR) and then incubated with anti-phospho-eIF4E (Millipore), anti-eIF4E (Santa Cruz), anti-CCND3 (Cell Signaling) or anti-IRF7 (Cell Signaling) at 4° C. overnight. I3-actin was used as a loading control. […] The blots were then washed and scanned, specific proteins were detected by using the LI-COR Odyssey infrared imager. • (d) Non-Radioactive Nascent Protein Synthesis Assay

TMD8 cells [1] = experiment: Proliferation of TMD8 cells; format: cell-based; conditions: Homo sapiens
IRF7 = experiment: Immunoblotting of IRF7 protein in TMD8 cells; format: cell-based, human; conditions: 48 hours, FIG. 6
Experimental: as §1, §2, §3

TMD8 cells [2] = experiment: Ribosome profiling (translational rate RPF, translational efficiency, mRNA); format: cell-based, human; conditions: for # Genes Down Regulated / # Genes Up Regulated: 10 μM
Experimental: as §1, §2
Ribosomal profiling allows for measurement of changes in transcription and translation on a genome-wide basis accompanying inhibition of MNK with Compound 107 treatment of human DLBCL cells. Ribosome profiles of the Compound 107 treated TMD8 cells (about 3×10^6 cells/10 cm plate were harvested for ribosome profiling following drug treatment) were prepared and analyzed for changes in translational efficiencies with respect to potential disease-associated cellular changes accompanying MNK inhibition.
Briefly, cells were washed with cold PBS supplemented with cycloheximide and lysed with 1× mammalian cell lysis buffer for 10 minutes on ice. Lysates were clarified by centrifugation for 10 minutes at 14,000 rpm and supernatants were collected. Cell lysates were processed to generate ribosomal protected fragments and total mRNA according to the instructions included with the ARTSEQ Ribosome Profiling Kit (Illumina). Sequencing of total RNA (RNA) and of ribosome-protected fragments of RNA (RPF) was carried out using RNA-Seq methodology according to the manufacturer's instructions (Illumina). To analyze the ribosomal profiles, RNA-Seq reads were processed with tools from the FASTX-Toolkit (fastq quality trimmer, fastx clipper and fastx trimmer). Unprocessed and processed reads were evaluated for a variety of quality measures using FastQC. Processed reads were mapped to the human genome using Tophat. Gene-by-gene assessment of the number of fragments strictly and uniquely mapping to the coding region of each gene was conducted using HTSeq-count, a component of the HTSeq package. Differential analyses of Compound 107 treatment of TMD8 cells were carried out with the software packages DESeq for transcription (RNA counts) and translational rate (RPF counts) and BABEL (Olshen 2013) for translational efficiency based upon ribosomal occupancy (RPF counts) as a function of RNA level (RNA counts). The Log2 fold change in translational efficiency (TE) between drug treated and control is determined from the Log2 fold change difference in RPF and RNA values (drug treated versus to control).
Genes with low counts in either RPF or RNA were excluded from differential analyses. Biological process classification was done using Gene Ontology term analysis.
TMD8 cells were treated with DMSO or Compound 107 (0.3 or 10 μM) and cell lysates from two biological replicates were collected after 3 or 48 hours after treatment. The cell lysates were divided into two fractions and processed to quantitate the drug effects on the total mRNA (transcriptome) or RNase digested to generate the ribosome protected fragments (translatome). The raw sequencing counts were analyzed using DESeq analysis to determine differential expression or differential ribosome occupancy between DMSO and Compound 107 treatment and are reported as the loge fold change. Quantitation of the ribosome protected fragments (RPF) directly reflects the extent that a given transcript is bound by ribosomes and is a measure of the drug effects on translational rate.
Loge fold change in TE values are calculated from the difference in loge fold change in translational rate (RPF) between drug treated and control, and the loge fold change in total mRNA (drug treated vs. control). Evaluation of TE results in normalizing translation changes to transcript abundance. The statistical significance for TE values was determined using Babel software which was developed for assessing the significance of changes in translational regulation between conditions.

[3] = system: CD3/CD28 activated T cells; experiment: Cytokines/chemokines in CD3/CD28 activated T cells; format: cell-based
TMD8 cells [4] = experiment: Non-radioactive nascent protein synthesis assay (AHA incorporation); format: cell-based, human
Experimental: as §1, §2
Newly synthesized proteins were detected by using the CLICK-IT Biotin Protein Analysis Detection Kit (Life Technologies; C33372) according to the manufacturer's protocol. Briefly, cells were rinsed with PBS once and incubated in methionine-free media for 30 min in the presence of the compound before being pulsed with the nonradioactive azide-containing methionine analogue AHA for 2 hrs. Cell lysates were then collected for the labeling reactions. The newly synthesized, AHA-incorporated protein was crosslinked to alkyne-derivatized biotin by a copper (I)—catalyzed cycloaddition (CLICK-IT) according to the manufacturer's instructions (Life Technologies). Following the labeling reactions, proteins were precipitated and quantified and subsequently subjected to immunoblotting analysis. Anti-streptavidin-HRP was used to detect newly synthesized proteins that contained biotin-conjugated AHA. Amount of newly synthesized proteins can be quantified by densitometry. • (e) Polysome Profiling

TMD8 cells [5] = experiment: Polysome profiling; format: cell-based, human; conditions: 0.3 or 10 μM, 3 or 48 hours
Experimental: TMD8 human diffuse large B-cell lymphoma line was cultured in RPMI media supplemented with penicillin G (100 U/ml), streptomycin (100 μg/ml), 10% FBS in a humidified atmosphere of 5% CO2 maintained at 37° C. • (b) Drug Treatment TMD8 cells were seeded prior to drug treatment. The following day, cells were treated with either DMSO (vehicle control) or MNK inhibitor (Compound 107) at the appropriate dose and time. • (c) Immunoblotting Cells were washed with cold PBS supplemented with cycloheximide and lysed with 1× mammalian cell lysis buffer for 10 minutes on ice. Lysates were clarified by centrifugation for 10 minutes at 14,000 rpm and supernatants were collected. The clarified lysate was loaded onto a 10-50% sucrose gradient containing 0.1 mg/ml cycloheximide (gradients were prepared using a BioComp Gradient Station) and centrifuged at 40,000 rpm for 2 hours at 4° C. using a SW40Ti rotor in a BECKMAN COULTER Optima L8-[…] ultra centrifuge. Polysome fractions were isolated using the BioComp Gradient Station. • (f) Ribosome Profiling

[6] = system: eIF4E phosphorylation (p-eIF4E); experiment: Immunoblotting of eIF4E phosphorylation in TMD8 cells; format: cell-based, human
Experimental: as §1, §2, §3

activated T cells = experiment: Cell surface PD-1 and LAG-3 on CD3/CD28 activated T cells; format: cell-based
eIF4F complex = experiment: eIF4G bound to eIF4E (eIF4F complex) in TMD8 cells; format: cell-based, human; conditions: increased concentrations
LAG-3 = LAG-3 protein expression in TMD8 cells; format: cell-based, human; conditions: data not shown
TMD8 cells [7] = experiment: Cytokine/chemokine protein expression in TMD8 cells; format: cell-based, human
TMD8 cells [8] = experiment: Cell survival of TMD8 cells; format: cell-based, human; conditions: increasing concentrations, data not shown
[9] = 3 hour, Translational Efficiency
[10] = 3 hour, Translational Rate (RPF)
[11] = 48 hour, Translational Efficiency
[12] = 48 hour, Translational Rate (RPF)

Cc1cc(Nc2cc(N)ncn2)c(=O)n2c1C(=O)NC21CCCCC1.Cl [Compound 107]
cyclin D3 protein level (Cyclin D3): reduction in cyclin D3
EC50 (TMD8 cells [1]): 3.3 µM
IRF7 at the protein level (IRF7): decreased
# Genes Down Regulated (TMD8 cells [2]; [9]): 24
# Genes Up Regulated (TMD8 cells [2]; [9]): 27
# Genes Down Regulated (TMD8 cells [2]; [10]): 58
# Genes Up Regulated (TMD8 cells [2]; [10]): 64
# Genes Down Regulated (TMD8 cells [2]; [11]): 31
# Genes Up Regulated (TMD8 cells [2]; [11]): 15
# Genes Down Regulated (TMD8 cells [2]; [12]): 123
# Genes Up Regulated (TMD8 cells [2]; [12]): 92
number of the 123 MNK-sensitive genes also down regulated at the mRNA expression level (TMD8 cells [2]; 48 hours, log2≤−0.75, p-value <0.01): 51
number of genes selectively down regulated at the translational level in the absence of substantial transcript changes (TMD8 cells [2]; 48 hours, log2≤−0.75, p-value <0.05): 27
translational efficiency of 3 hour gene set at 300 nM compared with 10 μM (TMD8 cells [2]; TMD8 cells, 3 hours, FIG. 7): equal or lesser extent
PD-1 translationally down regulated (TMD8 cells [2]; TMD8 cells, p-value=0.033, below significance cutoff): ~2 fold
select cytokines/chemokines (TNFα, IL10, CXCL10) [3]: reduction
global protein synthesis rates (TMD8 cells [4]; 10 μM for 48 hours): modest reduction
global protein synthesis (TMD8 cells [4]; 0.3 or 10 μM for 3 hours and 0.3 μM for 48 hours): no impact
global protein synthesis (TMD8 cells [4]; 3 hour treatment duration): negligible effects
polysome to monosome distribution (TMD8 cells [5]): not observed to alter
EC50 ([6]; Homo sapiens, TMD8 cell line, study report ECB-003, read-out: EC50 for inhibition of p-eIF4E): 0.0097 µM
inhibition of eIF4E phosphorylation (western blot) ([6]; TMD8 cells, 0.3-10 μM, 3 or 48 hours): essentially complete inhibition
cell surface levels of the immune checkpoint inhibitors PD-1 and LAG-3 (activated T cells; CD3/CD28 activated T cells): reduction
levels of PD-1 on the surface of activated T cells (activated T cells; data not shown): reduced
eIF4G bound to eIF4E (eIF4F complex): decrease
expression of LAG-3 at the protein level (LAG-3): selective decrease
cytokines evaluated (TNFα, IL6, IL10) (TMD8 cells [7]; DLBCL cell line TMD8): modulation of one or more of the cytokines evaluated
cytokine/chemokine biomarkers (CXCL10, IL6 and IL10) at the protein expression level (TMD8 cells [7]; data not shown): down regulated
cell survival (TMD8 cells [8]): promoted cell survival
